One assay deals with T1, VIM-1 (Pseudomonas aeruginosa, UniProt A0A0F7KYQ8).
T1 construct: made in house; host or cells: ECM6711 strain carrying pUCP24-VIM-1 plasmid; culture supernatant used unpurified
The experiment in a line: biochemical. To be noted: cleavage of nitrocefin (200 uM) by VIM-1 supernatant.

Assay [1] has as its target T2, NDM-1 (Klebsiella pneumoniae, UniProt C7C422). The experiment in a line: biochemical. To be noted: cleavage of imipenem (100 uM) by NDM-1; read-out: Ki, Imipenem.
Assay [2] addresses T3, purified class A, C and D enzymes (UniProt P0AD64, L31Q/G234S/E235K, species not given).
T3 construct: Ki (SHV-12, NCF); other: purified SHV-12; nitrocefin reporter substrate
T3 sequence (P0AD64 1-286 L31Q/G234S/E235K): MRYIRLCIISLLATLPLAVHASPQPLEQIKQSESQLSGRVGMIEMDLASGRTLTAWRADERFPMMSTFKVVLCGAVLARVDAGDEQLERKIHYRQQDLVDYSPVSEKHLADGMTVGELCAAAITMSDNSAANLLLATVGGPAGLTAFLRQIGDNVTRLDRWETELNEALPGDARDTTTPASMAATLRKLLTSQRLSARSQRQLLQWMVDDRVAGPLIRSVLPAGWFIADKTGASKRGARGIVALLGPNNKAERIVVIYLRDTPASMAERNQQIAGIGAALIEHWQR
In kind it is biochemical. Particulars: read-out: Ki (SHV-12, NCF); purified SHV-12; nitrocefin reporter substrate.

Assay [3] addresses purified class A, C and D enzymes (Escherichia coli, UniProt Q9L5C7). It counts as biochemical. Particulars: purified CTX-M-14; nitrocefin reporter substrate.
Assay [4] concerns the target T4, purified class A, C and D enzymes (UniProt Q9F663).
T4 construct: rows headed: Ki (KPC-2, NCF); other: purified KPC-2; nitrocefin reporter substrate
It counts as biochemical. To be noted: read-out: Ki (KPC-2, NCF); purified KPC-2; nitrocefin reporter substrate.

The target in assay [5] is T5, purified class A, C and D enzymes (UniProt Q6XEC0).
T5 construct: rows headed: Ki (OXA-48, NCF); other: purified OXA-48; nitrocefin reporter substrate
In kind it is biochemical. Particulars: read-out: Ki (OXA-48, NCF); purified OXA-48; nitrocefin reporter substrate.

Assay [6] concerns the target purified class A, C and D enzymes (Enterobacter cloacae, UniProt P05364). In kind it is biochemical. To be noted: purified P99/AmpC of ECL; nitrocefin reporter substrate.
In assay [7] the target is T2, NDM-1. The experiment in a line: Inhibition of purified class B carbapenemase NDM-1 (Ki, imipenem substrate). It counts as biochemical. Particulars: NDM-1, substrate imipenem; read-out: Ki NDM-1, Imipenem.

T2 sequence (C7C422 29-270, looked up, species assumed): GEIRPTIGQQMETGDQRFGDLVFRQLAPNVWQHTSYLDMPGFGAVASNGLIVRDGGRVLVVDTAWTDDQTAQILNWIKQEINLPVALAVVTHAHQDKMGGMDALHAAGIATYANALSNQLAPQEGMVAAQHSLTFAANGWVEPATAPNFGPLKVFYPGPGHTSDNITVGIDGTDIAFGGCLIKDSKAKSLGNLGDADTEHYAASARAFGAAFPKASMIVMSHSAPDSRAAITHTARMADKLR
Chain of purified class A, C and D enzymes (Enterobacter cloacae, UniProt P05364) (P05364 21-381): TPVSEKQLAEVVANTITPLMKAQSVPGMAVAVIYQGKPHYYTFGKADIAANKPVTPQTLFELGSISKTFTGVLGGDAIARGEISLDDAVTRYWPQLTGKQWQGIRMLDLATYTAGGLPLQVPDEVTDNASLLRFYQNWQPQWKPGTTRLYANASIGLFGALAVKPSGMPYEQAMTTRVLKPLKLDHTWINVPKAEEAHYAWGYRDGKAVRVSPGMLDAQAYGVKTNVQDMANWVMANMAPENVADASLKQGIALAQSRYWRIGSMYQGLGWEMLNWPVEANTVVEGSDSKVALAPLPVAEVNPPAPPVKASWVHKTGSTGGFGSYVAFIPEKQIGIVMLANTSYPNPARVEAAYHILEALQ
Chain of purified class A, C and D enzymes (Escherichia coli, UniProt Q9L5C7) (Q9L5C7 entry or part of it): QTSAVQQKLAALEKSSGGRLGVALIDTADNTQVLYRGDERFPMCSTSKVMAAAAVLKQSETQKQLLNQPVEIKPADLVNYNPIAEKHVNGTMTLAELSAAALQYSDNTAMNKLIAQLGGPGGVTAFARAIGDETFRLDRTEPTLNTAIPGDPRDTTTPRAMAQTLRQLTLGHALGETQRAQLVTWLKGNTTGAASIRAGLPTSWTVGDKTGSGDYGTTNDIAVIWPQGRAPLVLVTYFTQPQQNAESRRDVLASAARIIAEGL

As for `COc1c(F)cc2c(c1C(=O)O)OB(O)[C@@H](Sc1nnc(N)s1)C2` [Compound 114, (3R)-3-[(5-amino-1,3,4-thiadiazol-2-yl)sulfanyl]-6-fluoro-2-hydroxy-7-methoxy-3,4-dihydro-1,2-benzoxaborinine-8-carboxylic acid], the IC50 against VIM-1 was less than 1 µM. For the same molecule, the Ki is 0.01 to 0.1 µM on NDM-1 [1]; less than 0.1 µM in assay [2]; 0.1 to 1 µM in assay [4]; less than 0.1 µM in assay [5]; 0.01 to 0.1 µM at NDM-1 [7]. Also, in assay [3], the “Ki (CTX-M-14, NCF)” value is reported as “X (Less than 0.1 μM)”. For the same molecule, the “Ki (P99/AmpC of ECL, NCF)” value in assay [6] was “Y (0.1 μM to 1 μM)”.

In turn, `Nc1nnc(S[C@H]2Cc3cc4nc[nH]c4c(C(=O)O)c3OB2O)s1` [Compound 115, (3R)-3-[(5-amino-1,3,4-thiadiazol-2-yl)sulfanyl]-2-hydroxy-4,8-dihydro-3H-oxaborinino[6,5-f]benzimidazole-9-carboxylic acid] showed an IC50 on VIM-1 of less than 1 µM. For the same molecule, the Ki is more than 0.1 µM at NDM-1 [1]; less than 0.1 µM in assay [2]; 0.1 to 1 µM in assay [4]; less than 0.1 µM in assay [5]; more than 0.1 µM on NDM-1 [7]. For the same molecule, the “Ki (CTX-M-14, NCF)” value in assay [3] is “X (Less than 0.1 μM)”. Moreover, the “Ki (P99/AmpC of ECL, NCF)” value in assay [6] is recorded as “X (Less than 0.1 μM)”.

On to `NCCSc1nnc(S[C@H]2Cc3cccc(C(=O)O)c3OB2O)s1` [Compound 116, (3R)-3-[[5-(2-aminoethylsulfanyl)-1,3,4-thiadiazol-2-yl]sulfanyl]-2-hydroxy-3,4-dihydro-1,2-benzoxaborinine-8-carboxylic acid], for which the IC50 on VIM-1 is less than 1 µM. In addition, the Ki on NDM-1 [1] was less than 0.01 µM; in assay [2], less than 0.1 µM; in assay [4] it was less than 0.1 µM; in assay [5], less than 0.1 µM; at NDM-1 [7], less than 0.01 µM. In addition, the “Ki (CTX-M-14, NCF)” value in assay [3] was “X (Less than 0.1 μM)”. The “Ki (P99/AmpC of ECL, NCF)” value in assay [6] is “X (Less than 0.1 μM)”.

Turning to `COc1ccc2c(c1C(=O)O)OB(O)[C@@H](Sc1nnc(OCCN)s1)C2` [Compound 117, (3R)-3-[[5-(2-aminoethoxy)-1,3,4-thiadiazol-2-yl]sulfanyl]-2-hydroxy-7-methoxy-3,4-dihydro-1,2-benzoxaborinine-8-carboxylic acid], the IC50 against VIM-1 was less than 1 µM. Moreover, the Ki on NDM-1 [1] is less than 0.01 µM; in assay [2] it was less than 0.1 µM; in assay [4], 0.1 to 1 µM; in assay [5], less than 0.1 µM; at NDM-1 [7] it was less than 0.01 µM. Also, in assay [3], the “Ki (CTX-M-14, NCF)” value is “X (Less than 0.1 μM)”. Further, the “Ki (P99/AmpC of ECL, NCF)” value in assay [6] is on record as “Y (0.1 μM to 1 μM)”.

Molecule `CCOc1ccc2c(c1C(=O)O)OB(O)[C@@H](Sc1nnc(NC3CNC3)s1)C2` [Compound 118, (3R)-3-[[5-(azetidin-3-ylamino)-1,3,4-thiadiazol-2-yl]sulfanyl]-7-ethoxy-2-hydroxy-3,4-dihydro-1,2-benzoxaborinine-8-carboxylic acid] returned an IC50 at VIM-1 of less than 1 µM. Moreover, the Ki on NDM-1 [1] was more than 0.1 µM; in assay [2], less than 0.1 µM; in assay [4] it was 0.1 to 1 µM; in assay [5] it was less than 0.1 µM; at NDM-1 [7] it was more than 0.1 µM. Also, the “Ki (CTX-M-14, NCF)” value in assay [3] is “X (Less than 0.1 μM)”. In addition, in assay [6], the “Ki (P99/AmpC of ECL, NCF)” value is on record as “Y (0.1 μM to 1 μM)”.

In turn, `Nc1nnc(S[C@H]2Cc3ccc(-n4ccnn4)c(C(=O)O)c3OB2O)s1` [Compound 119, (3R)-3-[(5-amino-1,3,4-thiadiazol-2-yl)sulfanyl]-2-hydroxy-7-(triazol-1-yl)-3,4-dihydro-1,2-benzoxaborinine-8-carboxylic acid] registered an IC50 against VIM-1 of less than 1 µM. For the same molecule, the Ki is less than 0.01 µM at NDM-1 [1]; 0.1 to 1 µM in assay [2]; more than 1 µM in assay [4]; less than 0.1 µM in assay [5]; less than 0.01 µM on NDM-1 [7]. For the same molecule, the “Ki (CTX-M-14, NCF)” value in assay [3] was “X (Less than 0.1 μM)”. The “Ki (P99/AmpC of ECL, NCF)” value in assay [6] is on record as “Y (0.1 μM to 1 μM)”.

The IC50 is the concentration needed to halve the response being measured. A lower IC50 goes with greater potency. By Ki is commonly meant a dissociation constant, usually derived from enzyme kinetics or from competition with a known ligand.

Source of the values: patent US10206937B2, “Boronic acid derivatives and therapeutic uses thereof” (Qpex Biopharma, Inc., priority 2014, dated 2019).
